From the NIST ThermoML archive (doi:10.1021/acs.jced.8b00387)

Experiment: xn = mol fraction of the nth substance listed
Details: for viscosity / mass density / speed of sound: 102 kPa, Liquid; for viscosity: Concentric cylinders viscometry; for mass density: Vibrating tube method; for speed of sound: Frequency=3 MHz, Single path-length method; for surface tension liquid-gas: 295 K, Pendant drop shape

CC(CC(C)(C)C)CC(C)(C)C [2,2,4,6,6-pentamethylheptane] + CCCCc1ccccc1
Details | mass density [kg/m3] | speed of sound [m/s] | viscosity [mPa·s]
253.15 K, x2 = 0.1001 | 782.1 | – | –
253.15 K, x2 = 0.1015 | – | – | 2.82
253.15 K, x2 = 0.2 | 791.5 | – | –
253.15 K, x2 = 0.2005 | – | – | 2.63
253.15 K, x2 = 0.2999 | – | – | 2.49
253.15 K, x2 = 0.3001 | 801 | – | –
253.15 K, x2 = 0.4001 | – | – | 2.37
253.15 K, x2 = 0.4006 | 811.2 | – | –
253.15 K, x2 = 0.4996 | – | – | 2.28
253.15 K, x2 = 0.5 | 822.2 | – | –
253.15 K, x2 = 0.6 | – | – | 2.24
253.15 K, x2 = 0.6002 | 834.1 | – | –
253.15 K, x2 = 0.6999 | 846.8 | – | 2.2
253.15 K, x2 = 0.8 | – | – | 2.19
253.15 K, x2 = 0.8009 | 860 | – | –
253.15 K, x2 = 0.9 | 876.1 | – | 2.21
288.15 K, x2 = 0.1001 | 756.92 | 1234.1 | –
288.15 K, x2 = 0.2 | 765.57 | 1245.3 | –
288.15 K, x2 = 0.3001 | 774.88 | 1257.1 | –
288.15 K, x2 = 0.4006 | 784.92 | 1270 | –
288.15 K, x2 = 0.5 | 795.63 | 1283.8 | –
288.15 K, x2 = 0.6002 | 807.34 | 1298.7 | –
288.15 K, x2 = 0.6999 | 819.87 | 1315 | –
288.15 K, x2 = 0.8009 | 833.77 | 1332.9 | –
288.15 K, x2 = 0.9 | 848.29 | 1352.1 | –
293.15 K, x2 = 0.1001 | 753.25 | 1214.1 | –
293.15 K, x2 = 0.1015 | – | – | 1.24
293.15 K, x2 = 0.2 | 761.88 | 1225.4 | –
293.15 K, x2 = 0.2005 | – | – | 1.18
293.15 K, x2 = 0.2999 | – | – | 1.13
293.15 K, x2 = 0.3001 | 771.17 | 1237.2 | –
293.15 K, x2 = 0.4001 | – | – | 1.08
293.15 K, x2 = 0.4006 | 781.17 | 1250 | –
293.15 K, x2 = 0.4996 | – | – | 1.05
293.15 K, x2 = 0.5 | 791.85 | 1263.8 | –
293.15 K, x2 = 0.6 | – | – | 1.02
293.15 K, x2 = 0.6002 | 803.52 | 1278.9 | –
293.15 K, x2 = 0.6999 | 816.01 | 1295 | 1.01
293.15 K, x2 = 0.8 | – | – | 0.995
293.15 K, x2 = 0.8009 | 829.8 | 1312.9 | –
293.15 K, x2 = 0.9 | 844.33 | 1332.1 | 0.997
303.15 K, x2 = 0.1001 | 745.91 | 1175 | –
303.15 K, x2 = 0.1015 | – | – | 1.07
303.15 K, x2 = 0.2 | 754.49 | 1186.5 | –
303.15 K, x2 = 0.2005 | – | – | 1.03
303.15 K, x2 = 0.2999 | – | – | 0.989
303.15 K, x2 = 0.3001 | 763.72 | 1198 | –
303.15 K, x2 = 0.4001 | – | – | 0.951
303.15 K, x2 = 0.4006 | 773.66 | 1210.8 | –
303.15 K, x2 = 0.4996 | – | – | 0.924
303.15 K, x2 = 0.5 | 784.27 | 1224.6 | –
303.15 K, x2 = 0.6 | – | – | 0.904
303.15 K, x2 = 0.6002 | 795.86 | 1240.1 | –
303.15 K, x2 = 0.6999 | 808.28 | 1255.8 | 0.887
303.15 K, x2 = 0.8 | – | – | 0.874
303.15 K, x2 = 0.8009 | 821.96 | 1274.1 | –
303.15 K, x2 = 0.9 | 836.41 | 1292.8 | 0.874
313.15 K, x2 = 0.1001 | 738.55 | 1136.7 | –
313.15 K, x2 = 0.1015 | – | – | 0.92
313.15 K, x2 = 0.2 | 747.07 | 1148.4 | –
313.15 K, x2 = 0.2005 | – | – | 0.89
313.15 K, x2 = 0.2999 | – | – | 0.862
313.15 K, x2 = 0.3001 | 756.25 | 1159.8 | –
313.15 K, x2 = 0.4001 | – | – | 0.837
313.15 K, x2 = 0.4006 | 766.12 | 1172.6 | –
313.15 K, x2 = 0.4996 | – | – | 0.814
313.15 K, x2 = 0.5 | 776.66 | 1186.3 | –
313.15 K, x2 = 0.6 | – | – | 0.798
313.15 K, x2 = 0.6002 | 788.17 | 1201.9 | –
313.15 K, x2 = 0.6999 | 800.51 | 1217.5 | 0.781
313.15 K, x2 = 0.8 | – | – | 0.77
313.15 K, x2 = 0.8009 | 814.1 | 1235.9 | –
313.15 K, x2 = 0.9 | 828.46 | 1254.4 | 0.77
323.15 K, x2 = 0.1001 | 731.16 | 1099.4 | –
323.15 K, x2 = 0.1015 | – | – | 0.813
323.15 K, x2 = 0.2 | 739.61 | 1111 | –
323.15 K, x2 = 0.2005 | – | – | 0.784
323.15 K, x2 = 0.2999 | – | – | 0.762
323.15 K, x2 = 0.3001 | 748.74 | 1122.4 | –
323.15 K, x2 = 0.4001 | – | – | 0.735
323.15 K, x2 = 0.4006 | 758.55 | 1135.1 | –
323.15 K, x2 = 0.4996 | – | – | 0.718
323.15 K, x2 = 0.5 | 769.02 | 1148.8 | –
323.15 K, x2 = 0.6 | – | – | 0.703
323.15 K, x2 = 0.6002 | 780.45 | 1164.4 | –
323.15 K, x2 = 0.6999 | 792.72 | 1179.9 | 0.692
323.15 K, x2 = 0.8 | – | – | 0.682
323.15 K, x2 = 0.8009 | 806.2 | 1198.3 | –
323.15 K, x2 = 0.9 | 820.47 | 1216.8 | 0.683
333.15 K, x2 = 0.1001 | 723.71 | 1063 | –
333.15 K, x2 = 0.1015 | – | – | 0.715
333.15 K, x2 = 0.2 | 732.11 | 1074.5 | –
333.15 K, x2 = 0.2005 | – | – | 0.692
333.15 K, x2 = 0.2999 | – | – | 0.675
333.15 K, x2 = 0.3001 | 741.19 | 1086.1 | –
333.15 K, x2 = 0.4001 | – | – | 0.653
333.15 K, x2 = 0.4006 | 750.94 | 1098.7 | –
333.15 K, x2 = 0.4996 | – | – | 0.636
333.15 K, x2 = 0.5 | 761.34 | 1112.3 | –
333.15 K, x2 = 0.6 | – | – | 0.627
333.15 K, x2 = 0.6002 | 772.69 | 1127.7 | –
333.15 K, x2 = 0.6999 | 784.88 | 1143.2 | 0.617
333.15 K, x2 = 0.8 | – | – | 0.61
333.15 K, x2 = 0.8009 | 798.16 | 1161.4 | –
333.15 K, x2 = 0.9 | 812.44 | 1180 | 0.611

Details | surface tension liquid-gas [mN/m]
x2 = 0.1001 | 22
x2 = 0.2 | 22.2
x2 = 0.3001 | 22.7
x2 = 0.4006 | 23.1
x2 = 0.5 | 23.5
x2 = 0.6002 | 24
x2 = 0.6999 | 24.8
x2 = 0.8009 | 25.7
x2 = 0.8985 | 26.7
